According to patent US20240279215A1 (Cytokinetics, Incorporated, priority 2022, published 2024):

target: human NAMPT (Homo sapiens (Human), UniProt P43490); test: NMN fluorescence biochemical assay (human recombinant NAMPT enzyme assay)
In short: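 Activation of recombinant human NAMPT (6 nM) was tested with 2.5 mM ATP, 20 μM PRPP and 150 μM nicotinamide in 50 mM HEPES pH 7.2 for 60 min at ambient temperature. NMN was derivatized with acetophenone/KOH/formic acid and read by fluorescence (355/460 nm) after 40 min.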

Sequence of human NAMPT (P43490 whole entry): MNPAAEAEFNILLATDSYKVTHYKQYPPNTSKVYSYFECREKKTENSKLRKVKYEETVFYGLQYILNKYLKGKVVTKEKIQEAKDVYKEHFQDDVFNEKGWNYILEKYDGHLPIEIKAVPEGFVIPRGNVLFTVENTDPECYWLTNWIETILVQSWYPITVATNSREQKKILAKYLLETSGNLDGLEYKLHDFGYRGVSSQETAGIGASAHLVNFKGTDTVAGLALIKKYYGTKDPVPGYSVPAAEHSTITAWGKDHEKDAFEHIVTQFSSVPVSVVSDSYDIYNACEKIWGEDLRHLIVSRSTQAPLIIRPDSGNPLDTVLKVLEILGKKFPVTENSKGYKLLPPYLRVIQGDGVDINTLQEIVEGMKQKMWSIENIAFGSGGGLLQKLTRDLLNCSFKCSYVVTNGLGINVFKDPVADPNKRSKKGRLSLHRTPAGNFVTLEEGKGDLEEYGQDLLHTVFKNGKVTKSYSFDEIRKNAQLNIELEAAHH

| AC1.4 Human | EC50 | SMILES |
| --- | --- | --- |
| 0.07 µM | 2.94 µM | O=C(Nc1ccc(C2CCN(S(=O)(=O)N3CCC3)CC2)cc1)OCc1cnco1 [Compound 428, oxazol-5-ylmethyl (4-(1-(azetidin-1-ylsulfonyl)piperidin-4-yl)phenyl)carbamate] |
| 0.19 µM | 41.6 µM | O=C(Nc1ccc(C2CCN(C(=O)N3CCC3)CC2)cc1)OCc1cnco1 [Compound 429, oxazol-5-ylmethyl (4-(1-(azetidine-1-carbonyl)piperidin-4-yl)phenyl)carbamate] |
| 0.11 µM | 19.8 µM | CCC(=O)N1CCC(c2ccc(NC(=O)OCc3cnco3)cc2)CC1 [Compound 430, oxazol-5-ylmethyl (4-(1-propionylpiperidin-4-yl)phenyl)carbamate] |
| 0.17 µM | 27.5 µM | O=C(Nc1ccc(C2CCN(C(=O)C3CC3)CC2)cc1)OCc1cnco1 [Compound 431, oxazol-5-ylmethyl (4-(1-(cyclopropanecarbonyl)piperidin-4-yl)phenyl)carbamate] |
| 0.07 µM | 4.73 µM | CN(C)S(=O)(=O)N1CCC(c2ccc(NC(=O)OCc3cnco3)cc2)CC1 [Compound 432, oxazol-5-ylmethyl (4-(1-(N,N-dimethylsulfamoyl)piperidin-4-yl)phenyl)carbamate] |
| 0.21 µM | 3.53 µM | CN(C)S(=O)(=O)N1CCC(Cc2ccc(NC(=O)OCc3cnco3)cc2)CC12CC2 (stereo not shown) [Compound 440, oxazol-5-ylmethyl (4-((4-(N,N-dimethylsulfamoyl)-4-azaspiro[2.5]octan-7-yl)methyl)phenyl)carbamate] |
| 0.17 µM | 10.7 µM | O=C(Nc1ccc(CC2CCN(C3COC3)C3(CC3)C2)cc1)OCc1cnco1 (stereo not shown) [Compound 441, oxazol-5-ylmethyl (4-((4-(oxetan-3-yl)-4-azaspiro[2.5]octan-7-yl)methyl)phenyl)carbamate] |
| 0.12 µM | 3.78 µM | CN(C)C(=O)N1CCC(Cc2ccc(NC(=O)OCc3cnco3)cc2)CC12CC2 (stereo not shown) [Compound 442, oxazol-5-ylmethyl (4-((4-(dimethylcarbamoyl)-4-azaspiro[2.5]octan-7-yl)methyl)phenyl)carbamate] |
| 0.22 µM | 6.45 µM | COC(=O)N1CCC(Cc2ccc(NC(=O)OCc3cnco3)cc2)CC12CC2 (stereo not shown) [Compound 443, methyl 7-(4-(((oxazol-5-ylmethoxy)carbonyl)amino)benzyl)-4-azaspiro[2.5]octane-4-carboxylate] |
| 0.13 µM | 6.31 µM | CC(=O)N1CCC(Cc2ccc(NC(=O)OCc3cnco3)cc2)CC12CC2 (stereo not shown) [Compound 444, oxazol-5-ylmethyl (4-((4-acetyl-4-azaspiro[2.5]octan-7-yl)methyl)phenyl)carbamate] |
| 0.56 µM | 33.5 µM | CC(=O)N1CC2CCC(C1)C2c1ccc(NC(=O)OCc2cnco2)cc1 (stereo not shown) [Compound 445, oxazol-5-ylmethyl (4-(3-acetyl-3-azabicyclo[3.2.1]octan-8-yl)phenyl)carbamate] |
| 0.73 µM | 19.3 µM | CC(C)OC(=O)N1CCC(Cc2ccc(NC(=O)OCc3cnco3)cc2)CC1 [Compound 446, isopropyl 4-(4-(((oxazol-5-ylmethoxy)carbonyl)amino)benzyl)piperidine-1-carboxylate] |
| 0.08 µM | 2.31 µM | CN(C)S(=O)(=O)N1CCC(Cc2ccc(NC(=O)OCc3cnco3)cc2F)CC1 [Compound 447, oxazol-5-ylmethyl (4-((1-(N,N-dimethylsulfamoyl)piperidin-4-yl)methyl)-3-fluorophenyl)carbamate] |
| 0.13 µM | 4.5 µM | CS(=O)(=O)N1CCC(Cc2ccc(NC(=O)OCc3cnco3)cc2F)CC1 [Compound 448, oxazol-5-ylmethyl (3-fluoro-4-((1-(methylsulfonyl)piperidin-4-yl)methyl)phenyl)carbamate] |
| 0.13 µM | 4.97 µM | COC(=O)N1CCC(Cc2ccc(NC(=O)OCc3cnco3)cc2F)CC1 [Compound 450, methyl 4-(2-fluoro-4-(((oxazol-5-ylmethoxy)carbonyl)amino)benzyl)piperidine-1-carboxylate] |
| 0.16 µM | 7.79 µM | CC(=O)N1CCC(Cc2ccc(NC(=O)OCc3cnco3)cc2F)CC1 [Compound 451, oxazol-5-ylmethyl (4-((1-acetylpiperidin-4-yl)methyl)-3-fluorophenyl)carbamate] |
| 0.18 µM | 13 µM | O=C(Nc1ccc(CC2CCN(C3COC3)CC2)c(F)c1)OCc1cnco1 [Compound 452, oxazol-5-ylmethyl (3-fluoro-4-((1-(oxetan-3-yl)piperidin-4-yl)methyl)phenyl)carbamate] |
| 0.35 µM | 44 µM | CS(=O)(=O)N1CCC(Cc2ccc(NC(=O)OCc3cnco3)cc2)C2CC21 (stereo not shown) [Compound 453, oxazol-5-ylmethyl (4-((2-(methylsulfonyl)-2-azabicyclo[4.1.0]heptan-5-yl)methyl)phenyl)carbamate] |
| 0.14 µM | 16.1 µM | CN(C)C(=O)N1CCC(Cc2ccc(NC(=O)OCc3cnco3)cc2)C2CC21 (stereo not shown) [Compound 454, oxazol-5-ylmethyl (4-((2-(dimethylcarbamoyl)-2-azabicyclo[4.1.0]heptan-5-yl)methyl)phenyl)carbamate] |
| 0.84 µM | 32.4 µM | O=C(Nc1ccc(CC2CCN(C3COC3)C3CC23)cc1)OCc1cnco1 (stereo not shown) [Compound 455, oxazol-5-ylmethyl (4-((2-(oxetan-3-yl)-2-azabicyclo[4.1.0]heptan-5-yl)methyl)phenyl)carbamate] |
| 0.23 µM | 17.8 µM | COC(=O)N1CCC(Cc2ccc(NC(=O)OCc3cnco3)cc2)C2CC21 (stereo not shown) [Compound 456, methyl 5-(4-(((oxazol-5-ylmethoxy)carbonyl)amino)benzyl)-2-azabicyclo[4.1.0]heptane-2-carboxylate] |
| 0.250 µM | 21.6 µM | CC(=O)N1CCC(Cc2ccc(NC(=O)OCc3cnco3)cc2)C2CC21 (stereo not shown) [Compound 457, oxazol-5-ylmethyl (4-((2-acetyl-2-azabicyclo[4.1.0]heptan-5-yl)methyl)phenyl)carbamate] |
| 0.13 µM | 15.2 µM | O=C(Nc1ccc(CC2CCN(C(=O)N3CCOCC3)CC2)cc1)OCc1cnco1 [Compound 458, oxazol-5-ylmethyl (4-((1-(morpholine-4-carbonyl)piperidin-4-yl)methyl)phenyl)carbamate] |
| 0.18 µM | 7.06 µM | O=C(Nc1ccc(CC2CCN(S(=O)(=O)C3CCC3)CC2)cc1)OCc1cnco1 [Compound 459, oxazol-5-ylmethyl (4-((1-(cyclobutylsulfonyl)piperidin-4-yl)methyl)phenyl)carbamate] |
| 0.24 µM | 12.2 µM | O=C(Nc1ccc(CC2CCN(S(=O)(=O)C3CC3)CC2)cc1)OCc1cnco1 [Compound 460, oxazol-5-ylmethyl (4-((1-(cyclopropylsulfonyl)piperidin-4-yl)methyl)phenyl)carbamate] |
| 0.13 µM | 9.34 µM | O=C(Nc1ccc(CC2CCN(C(=O)N3CCCCC3)CC2)cc1)OCc1cnco1 [Compound 461, oxazol-5-ylmethyl (4-((1-(piperidine-1-carbonyl)piperidin-4-yl)methyl)phenyl)carbamate] |
| 0.18 µM | 13.3 µM | O=C(Nc1ccc(CC2CCN(C(=O)N3CCCC3)CC2)cc1)OCc1cnco1 [Compound 462, oxazol-5-ylmethyl (4-((1-(pyrrolidine-1-carbonyl)piperidin-4-yl)methyl)phenyl)carbamate] |
| 0.42 µM | 43.6 µM | O=C(Nc1ccc(CC2CCN(C(=O)N3CC(F)(F)C3)CC2)cc1)OCc1cnco1 [Compound 463, oxazol-5-ylmethyl (4-((1-(3,3-difluoroazetidine-1-carbonyl)piperidin-4-yl)methyl)phenyl)carbamate] |

| SMILES | AC1.4 Human | EC50 |
| --- | --- | --- |
| CN(C)S(=O)(=O)N1CC2CC(C1)C2Cc1ccc(NC(=O)OCc2cnco2)cc1 (stereo not shown) [Compound 433, oxazol-5-ylmethyl (4-((3-(N,N-dimethylsulfamoyl)-3-azabicyclo[3.1.1]heptan-6-yl)methyl)phenyl)carbamate] | 0.21 µM | 7.43 µM |
| CS(=O)(=O)N1CC2CC(C1)C2Cc1ccc(NC(=O)OCc2cnco2)cc1 (stereo not shown) [Compound 434, oxazol-5-ylmethyl (4-((3-(methylsulfonyl)-3-azabicyclo[3.1.1]heptan-6-yl)methyl)phenyl)carbamate] | 0.06 µM | 2.11 µM |
| COC(=O)N1CC2CC(C1)C2Cc1ccc(NC(=O)OCc2cnco2)cc1 (stereo not shown) [Compound 435, methyl 6-(4-(((oxazol-5-ylmethoxy)carbonyl)amino)benzyl)-3-azabicyclo[3.1.1]heptane-3-carboxylate] | 0.08 µM | 7.52 µM |
| CN(C)C(=O)N1CC2CC(C1)C2Cc1ccc(NC(=O)OCc2cnco2)cc1 (stereo not shown) [Compound 436, oxazol-5-ylmethyl (4-((3-(dimethylcarbamoyl)-3-azabicyclo[3.1.1]heptan-6-yl)methyl)phenyl)carbamate] | 0.08 µM | 6.04 µM |
| CC(C)C(=O)N1CC2CC(C1)C2Cc1ccc(NC(=O)OCc2cnco2)cc1 (stereo not shown) [Compound 437, oxazol-5-ylmethyl (4-((3-isobutyryl-3-azabicyclo[3.1.1]heptan-6-yl)methyl)phenyl)carbamate] | 0.27 µM | 9.67 µM |
| CC(=O)N1CC2CC(C1)C2Cc1ccc(NC(=O)OCc2cnco2)cc1 (stereo not shown) [Compound 438, oxazol-5-ylmethyl (4-((3-acetyl-3-azabicyclo[3.1.1]heptan-6-yl)methyl)phenyl)carbamate] | 0.04 µM | 2.7 µM |
| O=C(Nc1ccc(CC2C3CC2CN(C2COC2)C3)cc1)OCc1cnco1 (stereo not shown) [Compound 439, oxazol-5-ylmethyl (4-((3-(oxetan-3-yl)-3-azabicyclo[3.1.1]heptan-6-yl)methyl)phenyl)carbamate] | 1.47 µM | 25.6 µM |
